# From paper PMC4448987, “A neuroligin-1-derived peptide stimulates phosphorylation of the NMDA receptor NR1 subunit and rescues MK-801-induced decrease in long-term potentiation and memory impairment” (Pharmacology Research & Perspectives, 2015)
# Structures can show the parent of a compound that is named as a salt.
# Legend:
# [1] = tested on: hippocampal slices, CA3-CA1 synapse (fEPSP slope); experiment: LTP in acute hippocampal slices from mice injected s.c.; type: in vivo, C57BL/6N mice; conditions: mice injected with MK-801 0.1 mg/kg s.c. alone, 1 h before sacrifice; slope 25-30 min after HFS vs before; mean ± SEM, n = 6
# Method: Juvenile C57BL/6N mice of both sexes (postnatal day 16–24; Taconic, Ejby, Denmark) were injected subcutaneously (s.c.) with 10 mg/kg of the neurolide-1 peptide solution (10 mg/mL) and again 23 h later with 10 mg/kg of the neurolide-1 peptide solution (10 mg/mL) and 0.1 mg/kg MK-801 solution (0.025 mg/mL). Mice receiving the injection with the MK-801 solution only or untreated mice served as control groups. The young mice were rapidly and humanely euthanized with a minimum of distress by decapitation at a time point corresponding to 24 h after first injection. Preceding anesthetic was omitted to preserve the tissue free of drug residues and brain slice functions as unaltered as possible when performing the physiological measurements. After decapitation, the brain was removed. […]
# Measurements were made in oxygenated aCSF at room temperature (1.1 mL/min). […] The field potential in the stratum radiatum of the CA1 area of the hippocampus was recorded with an extracellular glass microelectrode (4–6 MΩ, filled with aCSF), positioned at least 500 μm away from the stimulation electrode. […]
# male Wistar rats [2] = experiment: Y maze test (spontaneous alternation); type: in vivo, rat; conditions: n = 6-12
# Method: NMDA-mediated effects of Neurolide-1 on spatial working memory performance was assessed by recording spontaneous alternation behavior in a Y maze test performed as described previously (Wegener et al. [2011]), (See Data S1). Initially, adult male Wister rats (420–490 g, n = 6–12; Charles River) were injected s.c., three times at 28, 4, and 2 h before start of the Y maze test. One group received Neurolide-1, saline, and neurolide-1 in this order. Another group received saline, MK-801, and saline in this order. A third group received neurolide-1, MK-801, and neurolide-1 in this order. And control group received saline at all times. In a second setup we tested the effect of neurolide-1 in very young male Wistar rats (4-weeks old) which received a s.c., injection of neurolide-1 or saline 2 h prior to testing them in the Y-maze (n = 11–15). Terminally, rats were rapidly and humanely rendered unconscious by concussive stunning and euthanized by cervical dislocation.
# The maze was made of gray polyvinyl chloride, with three identical arms (425 mm length × 225 mm height × 145 mm width) mounted symmetrically to an equilateral triangular center section. Each rat was placed at the end of one arm and allowed to explore the apparatus freely for 8 min. The sequence and number of all arm entries were recorded for each animal throughout the testing period. An alternation was defined as entries into all three arms on consecutive occasions. Therefore, the number of maximal alternation was the total number of arm entries minus 2, and the percentage of alternation was calculated as (actual alternations / maximal alternations) × 100. The total number of arms entered during the sessions was also determined (Yamaguchi et al, 2006). Data were eliminated in cases in which the number of total arm entries was less than 10 or when the rat escaped from the Y maze. After each trial, the Y maze was cleaned with 1% Virkon S (Pharmaxim, Helsingborg, Sweden).
# [3] = MK-801 0.1 mg/kg, cited from earlier work
# male Wistar rats [4] = experiment: Spatial memory in the Morris water maze; type: in vivo; conditions: rat, n = 12
# Method: The Morris water-maze test (Morris [1984]) was performed as previously described (Kraev et al. [2011]) with slight modifications (see Data S1). Male Wistar rats (Charles River), weighing 150–200 g on the day of arrival were used. To investigate for potential effects on memory consolidation, neurolide-1 was injected immediately after the training sessions on day 1 and 2 (n = 12 in each group). To test for potential effects on memory acquisition neurolide-1 was injected 2 h before start of training on training day 1 and 2 (n = 12 in each group). Finally, to test for potential effects on MK-801-induced learning deficiencies neurolide-1 was injected 2 h before start of training on day 2 and 3 in animals, which had received an injection with MK-801 30 min earlier (n = 6–9 in each group). In a slightly modified version of the MK-801 experiments a group of animals received a neurolide-1 injection immediately after the training sessions on day 1, and then a neurolide-1 injection 2 h before start of training on day 2, preceded by an MK-801 injection 30 min earlier (n = 12 in each group). Terminally, rats were rapidly and humanely rendered unconscious by concussive stunning and euthanized by cervical dislocation.
# The Morris water maze test (Morris, 1984) was conducted in a 160 cm wide circular black tank placed in a dimly lit room and filled with 21°C water up to 20 cm from the top. The tank was surrounded by visual orientation marks, and a 10 cm wide escape platform was placed 1.5 cm below the water level for it to be unseen. A video camera was placed above the tank and connected to a computerized tracking system (Ethovision 3.1, Noldus IT, Wageningen, Holland). The tank was divided into four equal-size quadrants that also served as starting positions. The latency to locate the platform, time spent swimming, and swimming speed were scored within the defined zones (i.e., total area, quadrants, and a platform circle that was 60 cm in diameter with the center in the original platform location). Prior to training, the rats were handled 2 min daily for 5 days to minimize stress during the experiments.
# Reference memory training consisted of three consecutive trials daily for 3 days. Each trial began with placing the animal in the water facing the wall of the pool. The starting position differed for each trial but was identical for all animals. In each trial, the animal was allowed 90 s to locate the platform. […] After each trial, the rats were allowed 20 s of orientation time on the platform and then removed from the pool for 20 s before the next trial was initiated. After the last trial each day, the animals were dried and returned to their home cages.
# To test for effects on long-term memory, the animals were tested in a probe trial 24 h after the last reference memory training. In the probe trial, the platform was removed, and the animals began from a position in a quadrant adjacent to the original platform quadrant. The rats were allowed to swim for 60 s, after which the trial was stopped.
# [5] = tested on: NMDA receptor NR1 subunit (serine 897); experiment: NMDA receptor phosphorylation assay (immunoblot, anti-phospho-Ser897-NR1) in cultured cortical neurons; type: cell-based, Wistar rat; conditions: cultured rat cortical neurons, 5 min stimulation, NL1 ectodomain up to 5.4 nmol/L, four independent experiments
# Method: Cortical neurons were obtained from Wistar rat embryos at embryonic day 19, of both sexes, basically as previously described (Maar et al. [1997]) (see Data S1). Briefly, animals were rendered unconscious by concussive stunning and euthanized by cervical dislocation. Hereafter, the embryonic brains were collected and cortical neurons were dissociated and seeded in 60-mm tissue culture dishes coated with 1 μg/mL of poly-D-lysine (Sigma-Aldrich, St. Louis, MO) and grown for 8 days before treatment. Then, the cultures were stimulated with either the NL1 ectodomain (0.2, 0.6, 1.8, and 5.4 nmol/L) or neurolide-1 (0.1, 0.3, 1, and 2.7 μmol/L) for 5 min. The cells were lysed, and proteins were resolved by sodium dodecyl sulfate-polyacrylamide gel electrophoresis followed by immunoblotting using rabbit anti-Ser897-NR1 antibody (1:500; Millipore, Billerica, MA), mouse anti-β-tubulin antibody (1:50,000; Sigma-Aldrich), and IRDye secondary antibodies (Odyssey, Lincoln, NE). The bands were visualized using the Odyssey CLX Infrared Imaging System (Odyssey). Four independent experiments with stimulation by NL1 ectodomain and eight independent experiments with stimulation by neurolide-1 were performed.
Molecule,increase of fEPSP slope after high-frequency stimulation (LTP) [1],"alternation rate (male Wistar rats [2]; adult rats 420-490 g, MK-801 0.1 mg/kg s.c. 4 h before test)","total number of arm entries, single treatment (male Wistar rats [2]; adult rats, peptide alone or MK-801 alone)","time after injection at which the increase in stereotypy peaked ([3]; returned to baseline 2 h later, ref Homayoun et al. [2004], Su et al. [2007])","motility ([3]; ref Verma and Moghaddam [1996], Homayoun et al. [2004])","learning (escape latency) in the water maze (male Wistar rats [4]; MK-801 0.1 mg/kg s.c. on day 2, 2.5 h before first training session)",velocity in the water maze (male Wistar rats [4]; MK-801 0.1 mg/kg s.c. with or without neurolide-1 10 mg/kg s.c. (long-term regimen)),effect on NR1 phosphorylation at higher concentrations [5]
"C[C@]12N[C@H](Cc3ccccc31)c1ccccc12 [MK-801, (5S,10R)-(+)-5-methyl-10,11-dihydro-5H-dibenzo[a,d]cyclohepten-5,10-imine maleate]",27 ± 5%,~50%,did not change,40 min,induce hypermotility,strongly inhibited learning,Neither treatments affected velocity,–
"NL1: rat recombinant NL1 ectodomain obtained from R&D Systems (protein, UniProt Q62765 46-697, looked up, extracellular domain, rat recombinant NL1 ectodomain obtained from R&D Systems) extracellular domain: QKLDDVDPLVTTNFGKIRGIKKELNNEILGPVIQFLGVPYAAPPTGEHRFQPPEPPSPWSDIRNATQFAPVCPQNIIDGRLPEVMLPVWFTNNLDVVSSYVQDQSEDCLYLNIYVPTEDVKRISKECARKPGKKICRKGDIRDSGGPKPVMVYIHGGSYMEGTGNLYDGSVLASYGNVIVITVNYRLGVLGFLSTGDQAAKGNYGLLDLIQALRWTSENIGFFGGDPLRITVFGSGAGGSCVNLLTLSHYSEGNRWSNSTKGLFQRAIAQSGTALSSWAVSFQPAKYARILATKVGCNVSDTVELVECLQKKPYKELVDQDVQPARYHIAFGPVIDGDVIPDDPQILMEQGEFLNYDIMLGVNQGEGLKFVENIVDSDDGVSASDFDFAVSNFVDNLYGYPEGKDVLRETIKFMYTDWADRHNPETRRKTLLALFTDHQWVAPAVATADLHSNFGSPTYFYAFYHHCQTDQVPAWADAAHGDEVPYVLGIPMIGPTELFPCNFSKNDVMLSAVVMTYWTNFAKTGDPNQPVPQDTKFIHTKPNRFEEVAWTRYSQKDQLYLHIGLKPRVKEHYRANKVNLWLELVPHLHNLNDISQYTSTTTKVPSTDITLRPTRKNSTPVTSAFPTAKQDDPKQQPSPFSVDQRDYSTELS",–,–,–,–,–,–,–,did not have a statistically significant effect
